According to US7094796B2, “Coupling product between tryptamine and an alpha-amino acid, process for its preparation as well as its application in the neurocosmetic field” (Exsymol S.A.M., priority 2002, dated 2006):

What was measured:
[1] = test system: PC 12 cells; experiment: Test 2: slowdown of the neurodegeneration process of PC 12 submitted to a deprivation of serum (LDH release); format: cell-based, murine; conditions: serum deprivation of nine days, average of six measures
Source text: (§1) The cell model chosen by the applicant in all its in vitro experimentations was a pheochromocytomal cell line with murine origin, called “PC 12” and commonly accepted for neurobiological and neurochemical studies on nervous cells (Greene L. A. and al., Proc. Natl. Acad. Sci. USA (1976), vol.73, pp.2424–2428), in particular on peripheral neurones which innervate skin (Keilbaugh S. A., Biochem. Pharm. (1997), vol.53, pp.1485–1492).
(§2) The PC 12 line was used after differentiation according to a method described in the literature (Greene L. A. et al. in Culturing Nerve Cells (1991), MIT Press, Cambridge, Mass., pp.207–225).
Test 2: anti-aging effect of the alpha-L-glutamyltryptamine, L-methionyltryptamine and L-tryptophantryptamine with the slowdown of the neurodegeneration process of PC 12 submitted to a deprivation of serum.
A deprivation of serum is applied to PC 12 cells in order to imitate the aging effects. The neurodegeneration process is followed, in the absence then in the presence of active ingredient, successively the alpha-L-glutamyltryptamine (Glu-Tryp), L-methionyltryptamine (Met-Tryp) and L-tryptophantryptamine (Trp-Tryp), by a kinetic measure of the release in the culture medium of lactico-dehydrogenase enzyme (LDH).
The results are expressed in relative survival rate given by the LDH activity ratio according to the following equation: […]
The values listed in the tables hereafter are average values obtained from six measures after a serum deprivation of nine days.

[2] = test system: immune monocyte cells, the THP-1 line; experiment: Test 4: stimulation of the neuro immuno-cutaneous system (IL-1β produced by THP-1 monocytes given supernatants of treated PC 12 cells); format: cell-based; conditions: supernatant added to THP-1, non treated supernatant control 40
Protocol: Test 4: stimulation of the neuro immuno-cutaneous system with the alpha-L-glutamyltryptamine, L-methionyltryptamine or L-tryptophantryptamine.
PC 12 cells are differentiated according to a special protocol to avoid artefacts. After a brief deprivation of growth and differentiation factors, PC 12 are incubated in different concentrations of pseudodipeptides, successively the alpha-L-glutamyltryptamine (Glu-Tryp), L-methionyltryptamine (Met-Tryp) and L-tryptophantryptamine (Trp-Tryp).
After a five days-incubation, the cellular supernatants containing neuromediators and miscellaneous secretions are sampled then introduced in the culture of immune monocyte cells, the THP-1 line.
The effect on the neuro immuno-cutaneous system is observed by measuring the rate of IL-1β interleukines produced by the monocyte cells in response to the addition of supernatants coming from the culture of PC 12 cells.
The results are compared to two controls: the first one with immune cells without supernatant, the second one containing immune cells with supernatant but non treated.

[3] = test system: PC 12 cells; experiment: Test 3: anti-inflammatory effect on PC 12 cells submitted to a UV-B pro-inflammatory stress (IL-6 production); format: cell-based, murine; conditions: UV-B 285 nm, 150 mJ/cm^2, non treated irradiated control 400, non irradiated control 0
Source text: as §1, §2
Test 3: anti-inflammatory effect of the alpha-L-glutamyltryptamine, L-methionyltryptamine and L-tryptophantryptamine on PC 12 cells submitted to a pro-inflammatory stress. Comparison with two controls (PC 12): the first one is non stressed, the second one is stressed but non treated
A UV-B pro-inflammatory stress is applied on PC 12 cells (285 nm±5; 150 mJ/cm^2), in the absence then in the presence of active ingredient, successively the alpha-L-glutamyltryptamine (Glu-Tryp), L-methionyltryptamine (Met-Tryp) and L-tryptophantryptamine (Trp-Tryp).
The neurogenic inflammatory response is evaluated by the measure of the rate of pro-inflammatory interleukine-6 (IL-6) which are produced by the PC 12 cells.

[4] = test system: PC 12 cells; experiment: Test 1: cytoprotecting effect on PC 12 cells submitted to a cytotoxic UV-B stress (LDH activity in culture medium); format: cell-based, murine; conditions: UV-B 285 nm, 500 mJ/cm^2, average of six measures
Source text: as §1, §2
Test 1: cytoprotecting effect of the alpha-L-glutamyltryptamine, L-methionyltryptamine and L-tryptophantryptamine on PC 12 cells submitted to a UV-B stress. Comparison with a reference antioxidant. A cytotoxic UV-B stress is applied on the nervous cell model (285 nm±5; 500 mJ/cm^2), in the absence then in the presence of active ingredient, successively the alpha-L-glutamyltryptamine (Glu-Tryp), L-methionyltryptamine (Met-Tryp) and L-tryptophantryptamine (Trp-Tryp).
The cell death is then evaluated by the measure of lactico-dehydrogenase activity (LDH) in the culture medium. This activity is proportional to the cell lysis which follows the cell death.
The results are expressed in % of protection and are given by the ratio of LDH activity according to the following equation: […]
The results are compared to the ones obtained with a reference antioxidant which is vitamin E (vit.E).
Validity of the test is checked by the measure of LDH activity in the culture medium of non stressed cells (negative check). Values listed in the tables hereafter are average values obtained from six measures.

[5] = 0.05 mM on PC 12, five days-incubation
[6] = 0.1 mM on PC 12, five days-incubation

Row | Compound | improvement of the survival time (%) ([1]; 0.1 mM) | improvement of the survival time (%) ([1]; 0.48 mM) | improvement of the survival time (%) ([1]; 0.85 mM) | produced IL-1β rate [2, 5] | produced IL-1β rate [2, 6] | produced IL-1β rate ([2]; 0.48 mM on PC 12, five days-incubation) | produced IL-6 rate ([3]; 0.1 mM) | produced IL-6 rate ([3]; 0.48 mM) | produced IL-6 rate ([3]; 0.85 mM) | % of protection ([4]; 0.05 mM) | % of protection ([4]; 0.1 mM) | % of protection ([4]; 0.48 mM) | % of protection ([4]; 0.85 mM) | % of protection ([4]; 1.91 mM) | improvement of the survival time (%) ([1]; 0.45 mM) | produced IL-1β rate ([2]; 0.45 mM on PC 12, five days-incubation) | produced IL-6 rate ([3]; 0.45 mM) | % of protection ([4]; 0.45 mM) | % of protection ([4]; 1.80 mM) | % of protection ([4]; 2 mM)
1 | CSCC[C@H](N)C(=O)NCCc1c[nH]c2ccccc12 [Met-Tryp, L-methionyltryptamine] | +12% | +15% | +28% | 42 pg/mL | 55 pg/mL | 85 pg/mL | 290 pg/mL | 210 pg/mL | 85 pg/mL | 20% | 32% | 42% | 53% | 65% | – | – | – | – | – | –
2 | N[C@@H](Cc1c[nH]c2ccccc12)C(=O)NCCc1c[nH]c2ccccc12 [Trp-Tryp, L-tryptophantryptamine] | +17% | – | +30% | 44 pg/mL | 60 pg/mL | – | 305 pg/mL | – | 100 pg/mL | 22% | 35% | – | 58% | – | +20% | 92 pg/mL | 210 pg/mL | 45% | 66% | –
3 | vitamin E [Vit. E, reference compound] | – | – | – | – | – | – | – | – | – | – | – | – | – | – | – | – | – | – | – | 34%
